In PubChem BioAssay (NCI):
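Exposure lasted 48 hours, with cells grown in 96-well plates and compounds tested at five concentrations. GI50 = concentration required for 50% inhibition of growth. TGI marks complete inhibition of growth.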

Tests used:
Assay in all cases: growth of human tumour cells (NCI), 48 h
LOX IMVI melanoma = system: LOX IMVI melanoma
OVCAR-4 ovarian = system: OVCAR-4 ovarian
NCI-H460 lung = system: NCI-H460 lung
HCC-2998 colon = system: HCC-2998 colon
EKVX NSCLC = system: EKVX NSCLC
SK-MEL-2 melanoma = system: SK-MEL-2 melanoma
OVCAR-5 ovarian = system: OVCAR-5 ovarian
MDA-MB-435 = system: MDA-MB-435
RPMI-8226 leukemia = system: RPMI-8226 leukemia
MCF7 breast = system: MCF7 breast

Compound | TGI (LOX IMVI melanoma) [µM] | TGI (OVCAR-4 ovarian) [µM] | TGI (NCI-H460 lung) [µM] | TGI (HCC-2998 colon) [µM] | TGI (EKVX NSCLC) [µM] | TGI (SK-MEL-2 melanoma) [µM] | TGI (OVCAR-5 ovarian) [µM] | GI50 (LOX IMVI melanoma) [µM] | GI50 (NCI-H460 lung) [µM] | GI50 (EKVX NSCLC) [µM] | GI50 (SK-MEL-2 melanoma) [µM] | GI50 (MDA-MB-435) [µM] | TGI (MDA-MB-435) [µM] | GI50 (RPMI-8226 leukemia) [µM] | TGI (RPMI-8226 leukemia) [µM] | GI50 (MCF7 breast) [µM] | TGI (MCF7 breast) [µM] | GI50 (OVCAR-4 ovarian) [µM] | GI50 (HCC-2998 colon) [µM] | GI50 (OVCAR-5 ovarian) [µM]
O=C(Cc1nc2ccccc2s1)Nc1ccc(Cl)cc1 | > 100 | > 100 | > 100 | > 100 | > 100 | > 100 | > 100 |  |  |  |  |  |  |  |  |  |  |  |  | 
CN(C)CCCNC(=O)c1ccc2oc3cc4ccccc4c(=O)n3c2c1 | 27 |  | > 50 |  | > 50 | > 50 |  | 10.8 | 16.6 | > 50 | > 50 | 31.6 | > 50 | > 50 | > 50 | > 50 | > 50 |  |  | 
NC(=NCCCC1(c2ccccc2)CCCC1)Nc1ccc(Cl)cc1 | 2.93 | 3.17 | 3.42 | 3.08 | 3.57 | 3.52 |  | 1.58 | 1.69 | 1.87 | 1.95 | 1.77 | 3.21 | 1.89 | 4.08 | 1.65 | 3.19 | 1.68 | 1.66 | 
C#Cc1c(C)c(/C=C/C(C)=C/C=C/C(C)=C/C(=O)OC)n(C)c1C | > 100 | > 100 | > 100 |  | > 100 | > 100 | > 100 |  |  |  |  |  |  |  | > 100 |  |  |  |  | 
COc1ccc2c(c1O)C(=O)C(CCC(=O)O)CC2 (stereo unspecified) | > 100 | > 100 | > 100 | > 100 | > 100 |  |  |  |  |  |  |  |  |  | > 100 |  |  |  |  | 
CO/[N+]([O-])=C\C(=O)N/C=C/C(=O)O | > 100 | > 100 | > 100 | > 100 | > 100 |  | > 100 |  |  |  |  |  | > 100 |  | > 100 |  | > 100 |  |  | 
NC(=O)/C(=C\c1ccncc1)c1cccc2ccccc12 | > 100 | > 100 | > 100 |  | > 100 | > 100 | > 100 |  |  |  |  |  | > 100 |  | > 100 |  | > 100 |  |  | 
O=C(NCCO)c1cc2c(cn1)[nH]c1ccccc12 | > 100 | > 100 | > 100 | 33.2 | > 100 | 33.6 | > 100 |  |  |  |  |  |  |  | > 100 |  |  |  |  | 
N=C(N)/N=C(\N)c1c(-c2cc(O)ccc2O)nc2sccn12 | 44.5 | > 100 | > 100 |  | > 100 | > 100 | 33.1 | 22.8 | > 100 | 98.6 | 44.9 | 18 | 35.3 | 21.9 | 49.5 | 37.8 | > 100 | 33.9 |  | 18.3
COc1ccc(CCN2CCCN3C2=Nc2ccccc2S3(=O)=O)cc1 | > 100 | > 100 | 44.1 | > 100 | > 100 | > 100 | > 100 | 0.669 | 0.429 | 18.8 | 0.521 |  |  | 0.563 | 53.5 | 0.329 | > 100 | 0.912 | 1.45 | 20.2
CCC(=O)C1(c2ccccc2)CCN(C)CC1 |  | > 100 | > 100 | > 100 | > 100 |  | > 100 |  |  |  |  |  |  |  | > 100 |  | > 100 |  |  | 
O=C(O)C1=C(C(=O)Nc2ccccc2)C2C=CC1C2 (stereo unspecified) | > 100 | > 100 | > 100 | > 100 | > 100 |  | > 100 |  |  |  |  |  |  |  | > 100 |  |  |  |  | 
C=CCCOC(=O)CO[N+](=O)[O-] | > 100 | > 100 | > 100 | > 100 | > 100 | > 100 | > 100 |  |  |  |  |  |  |  | > 100 |  |  |  |  | 
CCSC(SCC)c1cc2c(cc1Br)OCO2 | 38 | > 100 | 49.4 | 67.5 | > 100 | 51.9 | > 100 |  |  |  |  |  |  |  | 60.3 |  |  |  |  | 
CC(C)CC1C(=O)N2CCC[C@H]2C2(O)O[C@](NC(=O)C3C=C4c5cccc6[nH]c(Br)c(c56)C[C@H]4N(C)C3)(C(C)C)C(=O)N12 (stereo partly specified) | > 100 | > 100 | > 100 |  | > 100 | > 100 | > 100 | 21.6 | 6.6 | 3.7 | 22.6 | 16.7 | > 100 |  | > 100 | 4.92 | > 100 | 5.78 |  | 
Cc1ccc2c(c1)C(C)Cc1c(ncnc1-n1cnc3cc(C)ccc31)N2C (stereo unspecified) | 12.2 | 19 | 4.39 | 16.3 | 23.8 | 15.8 | 22.2 | 0.0361 | 0.034 | 0.0634 | 0.0419 |  |  | 0.0406 | 3.89 | 0.0345 | 12.8 | 0.0729 | 0.0422 | 0.048
COc1ccc(/C=C/C(=O)C(C)(C)CN2CCCCC2)cc1 | 29.6 | 22.1 | 43.3 | 33.7 | 80.7 | 32.7 | > 100 |  |  |  |  |  |  |  | 40.3 |  |  |  |  | 
CC(/C=C/C(=O)c1sc(-n2nc(-c3ccccc3)cc2-c2ccccc2)nc1C)=C\c1ccccc1 | > 100 | > 100 | > 100 | > 100 | > 100 | > 100 |  |  |  | 9.73 |  |  |  |  | > 100 |  |  | > 100 |  | 
Cc1nnc(N=Nc2c(O)[nH]c3c(Cl)cc(Cl)cc23)n1N | > 100 | > 100 | > 100 | > 100 | > 100 | > 100 | > 100 |  |  |  |  |  |  |  | > 100 |  |  |  |  | 
CC(=O)[O-].CC(=O)[O-].O=C(N/N=C/c1cc(Cl)cc(Cl)c1O)c1ccncc1.[Ni+2] | > 100 |  | > 100 | > 100 | > 100 | 87.4 | > 100 |  |  |  | 46.6 |  |  |  | > 100 |  |  |  |  | 
